Measurements from article PMC9457941, “Synthesis and Kinase Inhibitory Potencies of Pyrazolo[3,4-g]isoquinolines” (Molecules, 2022).
Read-outs that look alike come from different tables or passages of the source.

Key:
Format in all cases: biochemical
CDK5/p25 = target: T1, CDK5/p25 (Homo sapiens, UniProt Q00535); test: ADP-Glo kinase inhibition assay, CDK5/p25; conditions: for remaining activity at 1 µM: read-out: CDK5 % residual activity at 1 μM; for remaining activity at 10 µM: read-out: CDK5 % residual activity at 10 μM
T1 construct: host or cells: bacteria
Method: (§1) Kinase enzymatic activities were assayed in 384 well plates using the ADP-GloTM assay kit (Promega, Madison, WI, USA) according to the manufacturer’s guidance. Briefly, the reactions were carried out in a final volume of 6 μL for 30 min at 30 °C in an appropriate kinase buffer (10 mM MgCl2, 1 mM EGTA, 1 mM DTT, 25 mM Tris-HCl pH 7.5, 50 μg/mL heparin), with either protein or peptide as substrate in the presence of 10 μM ATP (40 mM Tris pH 7.5, 20 mM MgCl2 and 0.1 mg/mL of BSA). Afterward, 6 μL of ADP-GloTM Kinase Reagent was added to stop the kinase reaction. After an incubation time of 50 min at room temperature (RT), 12 μL of Kinase Detection Reagent was added for 1 h at RT. The transmitted signal was measured using the Envision (Perkin Elmer, Waltham, MA, USA) microplate luminometer and expressed in relative light unit (RLU). In order to determine the half maximal inhibitory concentration (IC50), the assays were performed in duplicate in the absence or presence of increasing doses of the tested compounds. GraphPad Prism6 software (GraphPad Software, San Diego, CA, USA) was used to fit dose–response curves and to determine the IC50 values. Kinase activities are expressed in the percentage of maximal activity, i.e., measured in the absence of an inhibitor. Peptide substrates were obtained from Proteogenix (Schiltigheim, France).
(§2) The following protein kinases were analyzed in this study: CDK5/p25 (human, recombinant, expressed in bacteria) was assayed with 0.8 μg/μL of histone H1 as substrate; CDK9/CyclinT (human, recombinant, expressed by baculovirus in Sf9 insect cells) were assayed with 0.27 μg/μL of the following peptide: […], as substrate; CK1ε (human, recombinant, expressed by baculovirus in Sf9 insect cells) was assayed with 0.022 μg/μL of the following peptide: […]pAYSITA (“Sp” stands for phosphorylated serine) as CK1-specific substrate; GSK3β (human, recombinant, expressed by baculovirus in Sf9 insect cells) were assayed with 0.010 μg/μL of GS-1 peptide, a GSK-3-selective substrate ([…]pEDEEE); Haspin-kd (human, kinase domain, amino acids 470–798, recombinant, expressed in bacteria) was assayed with 0.007 μg/μL of histone H3 (1–21) peptide ([…]) as substrate; Pim-1 (human proto-oncogene, recombinant, expressed in bacteria) was assayed with 0.8 μg/μL of histone H1 as substrate; MmCLK1 (from Mus musculus, recombinant, expressed in bacteria) was assayed with 0.027 μg/μL of the following peptide: […] as substrate; RnDYRK1A-kd (Rattus norvegicus, amino acids 1–499 including the kinase domain, recombinant, expressed in bacteria, DNA vector kindly provided by Dr. W. Becker, Aachen, Germany) was assayed with 0.033 μg/μL of the following peptide: […] as substrate.

[1] = target: T2, Haspin-kd (human, kinase domain, amino acids 470–798) (Homo sapiens, UniProt Q8TF76); test: ADP-Glo kinase inhibition assay, Haspin; conditions: for remaining activity at 1 µM: read-out: Haspin % residual activity at 1 μM; for remaining activity at 10 µM: read-out: Haspin % residual activity at 10 μM; for IC50: 10 μM ATP, duplicate
T2 construct: Haspin-kd (human, kinase domain, amino acids 470–798, recombinant, expressed in bacteria); host or cells: bacteria
T2 sequence (Q8TF76 470-798): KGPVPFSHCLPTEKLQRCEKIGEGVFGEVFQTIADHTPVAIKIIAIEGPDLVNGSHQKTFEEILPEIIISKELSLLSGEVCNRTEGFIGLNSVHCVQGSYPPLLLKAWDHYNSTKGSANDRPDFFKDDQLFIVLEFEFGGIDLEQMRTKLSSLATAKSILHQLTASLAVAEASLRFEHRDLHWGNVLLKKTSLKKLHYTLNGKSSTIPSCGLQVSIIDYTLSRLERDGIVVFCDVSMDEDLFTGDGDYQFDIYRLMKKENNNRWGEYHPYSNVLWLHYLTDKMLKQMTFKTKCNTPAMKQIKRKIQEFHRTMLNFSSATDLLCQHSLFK
Method: as §1

RnDYRK1A-kd = target: T3, RnDYRK1A-kd (Rattus norvegicus, UniProt Q63470); test: ADP-Glo kinase inhibition assay, DYRK1A; conditions: for remaining activity at 1 µM: read-out: DYRK1A % residual activity at 1 μM; for remaining activity at 10 µM: read-out: DYRK1A % residual activity at 10 μM
T3 construct: RnDYRK1A-kd (Rattus norvegicus, amino acids 1–499 including the kinase domain, recombinant, expressed in bacteria); made in house; host or cells: bacteria
Method: as §1, §2

CDK9/CyclinT = target: T4, CDK9/CyclinT (Homo sapiens, UniProt P50750); test: ADP-Glo kinase inhibition assay, CDK9/CyclinT; conditions: for remaining activity at 1 µM: read-out: CDK9 % residual activity at 1 μM; for remaining activity at 10 µM: read-out: CDK9 % residual activity at 10 μM; for IC50: 10 μM ATP, duplicate
T4 construct: host or cells: Sf9 insect cells (baculovirus)
Method: as §1, §2

GSK3β = target: T5, GSK3β (Homo sapiens, UniProt P49841); test: ADP-Glo kinase inhibition assay, GSK3β; conditions: for remaining activity at 1 µM: read-out: GSK3 % residual activity at 1 μM; for remaining activity at 10 µM: read-out: GSK3 % residual activity at 10 μM
T5 construct: host or cells: Sf9 insect cells (baculovirus)
Method: as §1, §2

CK1ε = target: T6, CK1ε (Homo sapiens, UniProt P49674); test: ADP-Glo kinase inhibition assay, CK1ε; conditions: 10 μM ATP, duplicate; for remaining activity at 1 µM: 1 μM compound, read-out: CK1 % residual activity at 1 μM; for remaining activity at 10 µM: 10 μM compound, read-out: CK1 % residual activity at 10 μM
T6 construct: host or cells: Sf9 insect cells (baculovirus)
Method: as §1, §2

Pim-1 = target: T7, Pim-1 (Homo sapiens, UniProt P11309); test: ADP-Glo kinase inhibition assay, Pim-1; conditions: 10 μM ATP, duplicate; for remaining activity at 1 µM: 1 μM compound, read-out: PIM1 % residual activity at 1 μM; for remaining activity at 10 µM: 10 μM compound, read-out: PIM1 % residual activity at 10 μM
T7 construct: host or cells: bacteria
Method: as §1, §2

MmCLK1 = target: T8, MmCLK1 (Mus musculus, UniProt P22518); test: ADP-Glo kinase inhibition assay, CLK1; conditions: for remaining activity at 1 µM: read-out: CLK1 % residual activity at 1 μM; for remaining activity at 10 µM: read-out: CLK1 % residual activity at 10 μM
T8 construct: host or cells: bacteria
Method: as §1, §2

[2] = 10 μM ATP, duplicate, read-out: DYRK1A IC50
[3] = 10 μM ATP, duplicate, read-out: CLK1 IC50

T6 sequence (P49674 whole entry): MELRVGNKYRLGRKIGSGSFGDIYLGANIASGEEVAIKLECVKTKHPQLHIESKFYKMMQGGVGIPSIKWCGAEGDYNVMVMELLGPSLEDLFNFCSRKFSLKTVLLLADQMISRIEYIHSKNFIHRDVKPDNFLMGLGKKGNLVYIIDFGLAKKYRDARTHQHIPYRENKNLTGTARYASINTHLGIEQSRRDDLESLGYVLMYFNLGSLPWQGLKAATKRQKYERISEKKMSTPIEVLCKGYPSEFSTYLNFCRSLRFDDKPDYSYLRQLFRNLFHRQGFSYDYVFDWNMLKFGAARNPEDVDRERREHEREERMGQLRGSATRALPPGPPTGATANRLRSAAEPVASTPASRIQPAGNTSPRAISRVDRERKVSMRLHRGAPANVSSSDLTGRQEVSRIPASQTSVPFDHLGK
T7 sequence (P11309 whole entry): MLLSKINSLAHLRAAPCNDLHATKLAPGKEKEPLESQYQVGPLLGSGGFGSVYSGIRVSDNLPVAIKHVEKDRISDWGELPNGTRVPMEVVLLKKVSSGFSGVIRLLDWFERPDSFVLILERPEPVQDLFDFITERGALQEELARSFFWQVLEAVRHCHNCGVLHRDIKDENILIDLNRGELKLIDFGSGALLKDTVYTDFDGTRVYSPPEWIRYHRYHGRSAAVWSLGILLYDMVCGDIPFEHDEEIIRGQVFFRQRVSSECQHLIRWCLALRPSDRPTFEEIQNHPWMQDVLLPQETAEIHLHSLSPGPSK
T4 sequence (O60563 whole entry): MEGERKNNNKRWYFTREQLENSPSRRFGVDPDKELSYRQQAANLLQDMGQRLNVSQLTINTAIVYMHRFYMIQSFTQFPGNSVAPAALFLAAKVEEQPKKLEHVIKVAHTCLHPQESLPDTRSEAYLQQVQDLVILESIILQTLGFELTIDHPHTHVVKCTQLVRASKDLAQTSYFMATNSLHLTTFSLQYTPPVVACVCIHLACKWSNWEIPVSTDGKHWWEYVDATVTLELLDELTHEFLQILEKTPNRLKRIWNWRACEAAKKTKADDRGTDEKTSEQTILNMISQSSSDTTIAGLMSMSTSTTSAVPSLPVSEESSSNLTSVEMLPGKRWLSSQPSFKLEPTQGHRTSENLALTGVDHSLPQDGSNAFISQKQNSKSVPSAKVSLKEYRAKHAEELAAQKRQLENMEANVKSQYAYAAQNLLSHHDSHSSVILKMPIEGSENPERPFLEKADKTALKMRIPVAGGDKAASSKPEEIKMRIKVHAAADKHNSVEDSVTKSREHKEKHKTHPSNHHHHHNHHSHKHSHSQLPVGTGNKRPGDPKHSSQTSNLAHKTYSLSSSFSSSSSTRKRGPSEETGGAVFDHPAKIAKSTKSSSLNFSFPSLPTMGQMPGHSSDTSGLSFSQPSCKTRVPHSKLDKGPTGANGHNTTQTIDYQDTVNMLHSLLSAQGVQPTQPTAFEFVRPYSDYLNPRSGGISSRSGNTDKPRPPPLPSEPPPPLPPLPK
T4 sequence (P50750 whole entry): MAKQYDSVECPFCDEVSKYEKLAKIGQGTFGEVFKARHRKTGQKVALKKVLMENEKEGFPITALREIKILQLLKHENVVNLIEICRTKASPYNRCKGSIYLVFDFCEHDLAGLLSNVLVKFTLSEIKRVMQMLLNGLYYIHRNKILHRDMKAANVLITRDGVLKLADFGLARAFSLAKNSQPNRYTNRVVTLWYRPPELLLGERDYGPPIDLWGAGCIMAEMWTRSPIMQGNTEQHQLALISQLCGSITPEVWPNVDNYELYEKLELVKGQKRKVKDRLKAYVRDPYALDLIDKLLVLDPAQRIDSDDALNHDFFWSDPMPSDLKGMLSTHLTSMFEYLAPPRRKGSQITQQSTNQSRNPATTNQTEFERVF
T1 sequence (Q00535 whole entry): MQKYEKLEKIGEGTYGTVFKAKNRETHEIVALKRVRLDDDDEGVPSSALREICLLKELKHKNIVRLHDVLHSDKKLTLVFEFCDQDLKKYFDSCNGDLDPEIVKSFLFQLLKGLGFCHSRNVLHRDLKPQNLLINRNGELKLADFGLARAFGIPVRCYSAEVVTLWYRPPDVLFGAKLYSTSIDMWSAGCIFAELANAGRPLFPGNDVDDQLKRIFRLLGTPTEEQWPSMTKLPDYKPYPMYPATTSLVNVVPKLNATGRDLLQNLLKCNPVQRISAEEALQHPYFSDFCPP
T1 sequence (Q15078 99-307, further chain): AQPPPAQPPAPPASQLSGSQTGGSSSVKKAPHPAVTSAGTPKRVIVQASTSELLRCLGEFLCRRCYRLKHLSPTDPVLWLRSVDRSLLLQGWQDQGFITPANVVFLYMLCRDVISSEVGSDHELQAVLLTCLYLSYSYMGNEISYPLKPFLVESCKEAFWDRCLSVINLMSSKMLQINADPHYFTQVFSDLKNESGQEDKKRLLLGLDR
T8 sequence (P22518 whole entry): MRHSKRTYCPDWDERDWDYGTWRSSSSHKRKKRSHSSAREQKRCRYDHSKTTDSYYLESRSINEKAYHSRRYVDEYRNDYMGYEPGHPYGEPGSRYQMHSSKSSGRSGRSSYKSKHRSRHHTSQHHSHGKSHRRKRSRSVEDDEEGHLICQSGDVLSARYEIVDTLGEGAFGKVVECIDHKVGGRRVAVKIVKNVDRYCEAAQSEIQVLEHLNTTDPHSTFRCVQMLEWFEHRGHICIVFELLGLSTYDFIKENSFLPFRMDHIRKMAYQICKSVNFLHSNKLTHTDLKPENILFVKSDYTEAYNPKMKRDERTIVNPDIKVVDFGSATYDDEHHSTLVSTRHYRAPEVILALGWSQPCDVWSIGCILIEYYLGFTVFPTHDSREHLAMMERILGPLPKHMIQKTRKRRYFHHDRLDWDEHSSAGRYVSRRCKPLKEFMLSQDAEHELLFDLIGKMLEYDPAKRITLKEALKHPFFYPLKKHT
T5 sequence (P49841 whole entry): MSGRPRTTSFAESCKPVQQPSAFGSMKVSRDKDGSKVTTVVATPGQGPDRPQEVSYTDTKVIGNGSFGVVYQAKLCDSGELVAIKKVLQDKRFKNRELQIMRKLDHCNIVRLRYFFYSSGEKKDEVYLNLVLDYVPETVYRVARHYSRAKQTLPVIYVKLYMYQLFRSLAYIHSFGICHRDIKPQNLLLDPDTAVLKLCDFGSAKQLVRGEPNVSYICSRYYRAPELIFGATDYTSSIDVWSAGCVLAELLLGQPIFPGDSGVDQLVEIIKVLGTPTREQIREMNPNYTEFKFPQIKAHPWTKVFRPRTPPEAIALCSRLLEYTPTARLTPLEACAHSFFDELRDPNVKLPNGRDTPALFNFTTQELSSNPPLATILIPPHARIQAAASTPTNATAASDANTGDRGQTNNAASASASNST

Row | Compound | remaining activity at 1 µM (CDK5/p25) | remaining activity at 10 µM (CDK5/p25) | remaining activity at 1 µM [1] | remaining activity at 10 µM [1] | remaining activity at 1 µM (RnDYRK1A-kd) | remaining activity at 10 µM (RnDYRK1A-kd) | remaining activity at 1 µM (CDK9/CyclinT) | remaining activity at 10 µM (CDK9/CyclinT) | remaining activity at 1 µM (GSK3β) | remaining activity at 10 µM (GSK3β) | remaining activity at 1 µM (CK1ε) | remaining activity at 10 µM (CK1ε) | remaining activity at 1 µM (Pim-1) | remaining activity at 10 µM (Pim-1) | remaining activity at 1 µM (MmCLK1) | remaining activity at 10 µM (MmCLK1) | IC50 [1] | IC50 (RnDYRK1A-kd; [2]) | IC50 (MmCLK1; [3]) | also measured
1 | CCCCc1c2cnccc2c([N+](=O)[O-])c2c1cnn2CC [Compound 3e, 4-Butyl-1-ethyl-9-nitro-1H-pyrazolo[3,4-g]isoquinoline] | 82% | 57% | 78% | 19% | 72% | 16% | 33% | 10% | 39% | 10% | 100% | 60% | 78% | 35% | 58% | 16% |  |  |  | 
2 | CCc1c2cnccc2c([N+](=O)[O-])c2c1cnn2CC [Compound 3b, 1,4-Diethyl-9-nitro-1H-pyrazolo[3,4-g]isoquinoline] | 33% | 16% | 63% | 10% | 100% | 9% | 25% | 0% | 28% | 3% | 82% | 25% | 100% | 89% | 19% | 0% |  |  |  | inhibition at 1 µM ([1]; read-out: Haspin inhibition at 1 μM, 1 μM compound, % inhibition): ≤ 50%
3 | Cn1ncc2cc3cnccc3c([N+](=O)[O-])c21 [Compound 1b, 1-Methyl-9-nitro-1H-pyrazolo[3,4-g]isoquinoline] | 95% | 43% | 26% | 9% | 41% | 11% | 57% | 35% | 73% | 33% | 88% | 53% | 100% | 54% | 42% | 10% | 57 nM | 681 nM | 71 nM | 
4 | O=[N+]([O-])c1c2ccncc2cc2cn[nH]c12 [1a’] | 91% | 62% | 32% | 23% | 68% | 25% | 86% | 48% | 99% | 50% | 100% | 64% | 90% | 85% | 90% | 30% | 154 nM |  |  | IC50 (RnDYRK1A-kd; assumed on the basis of % of inhibition at 1 μM (less than 50%), read-out: DYRK1A IC50 (assumed)): > 1000 nM; IC50 (MmCLK1; assumed on the basis of % of inhibition at 1 μM (less than 50%), read-out: CLK1 IC50 (assumed)): > 1000 nM
5 | CCn1ncc2cc3cnccc3c(N)c21 [Compound 2c, 1-Ethyl-1H-pyrazolo[3,4-g]isoquinolin-9-amine] | 65% | 28% | 17% | 3% | 23% | 6% | 80% | 50% | 82% | 40% | 84% | 48% | 91% | 60% | 34% | 8% | 62 nM | 250 nM | 564 nM | Selectivity Index (SI) Haspin vs. DYRK1A ([1]; Haspin vs. DYRK1A, which was more inhibited than CLK1): 4.0
6 | CCn1ncc2c(C)c3cnccc3c([N+](=O)[O-])c21 [Compound 3a, 1-Ethyl-4-methyl-9-nitro-1H-pyrazolo[3,4-g]isoquinoline] | 64% | 35% | 20% | 8% | 73% | 13% | 43% | 14% | 39% | 9% | 89% | 45% | 100% | 97% | 13% | 0% | 167 nM |  | 101 nM | IC50 (CDK9/CyclinT): 789 nM; IC50 (GSK3β; 10 μM ATP, duplicate, read-out: GSK3 IC50): 1080 nM
7 | CCn1ncc2cc3cnccc3c([N+](=O)[O-])c21 [Compound 1c, 1-Ethyl-9-nitro-1H-pyrazolo[3,4-g]isoquinoline] | 94% | 79% | 38% | 15% | 44% | 18% | 46% | 23% | 53% | 19% | 90% | 58% | 100% | 70% | 25% | 6% | 66 nM | 1110 nM | 166 nM | IC50 (CDK9/CyclinT): 428 nM
